Tested on: mesenteric artery
Test: Relaxation of mesenteric artery (helical strips contracted with KCl, organ bath)
Parameters: species or system rabbit (home bred, Japanese species)
Conditions: Oryctolagus cuniculus, read-out: Relaxation of Mesenteric Artery ED50
Procedure: After a home bred rabbit of a Japanese species weighing about 3 Kg was subjected to bloodletting, resulting in death and then to abdominal incision, the mesenteric artery was taken out, cut into helicoids of 2 mm×25 mm and suspended in a 20 ml organ bath filled with a Krebs-Henseleit solution into which a mixed gas of 95% by volume of O2 and 5% by volume of CO2 was introduced and one end of the artery was connected with an isometric transducer. When a load of 1.5 g was applied to the artery, the contraction and the relaxation of the artery were recorded as a weight on the transducer (a product of Nippon Koden K.K., Japan, "FD Pickup TB-912T"). The relaxation of the mesenteric artery was observed by adding the isoquinolinesulfonyl derivatives and their pharmaceutically acceptable acid addition salts of this invention to the mesenteric artery at the condition of about one half of the maximum contraction with KCl at a KCl concentration of 15~20 mM. When the complete relaxation of the mesenteric artery was designated 100%, the concentration of the isoquinolinesulfonyl derivatives and their pharmaceutically acceptable acid addition salts which brought about a relaxation of 50% is shown in Table 12.

Structure (SMILES)	EC50 [µM]
CC1CNCCN1S(=O)(=O)c1cccc2cnccc12 (stereo not drawn) [Compound (38), 1-(5-isoquinolinesulfonyl)-2-methylpiperazine]	5

Same assay, conditions: Oryctolagus cuniculus; concentration for 50% relaxation; KCl 15~20 mM contraction; read-out: Relaxation of Mesenteric Artery ED50

Structure (SMILES)	EC50 [µM]
CNCCNS(=O)(=O)c1cccc2cnccc12 [Compound (14), N-(2-methylaminoethyl)-5-isoquinolinesulfonamide]	12
CCCCN(CCCC)CCCNS(=O)(=O)c1cccc2cnccc12 [Compound (19), N-(3-di-n-butylaminopropyl)-5-isoquinolinesulfonamide]	17
CC(C)C(N)CNS(=O)(=O)c1cccc2cnccc12 (stereo not drawn) [Compound (11), N-(2-amino-3-methylbutyl)-5-isoquinolinesulfonamide]	28
CC1CN(S(=O)(=O)c2cccc3cnccc23)C(C)CN1 (stereo not drawn) [Compound (40), 1-(5-isoquinolinesulfonyl)-2,5-dimethylpiperazine]	0.6
O=C(c1ccccc1)N1CCN(S(=O)(=O)c2cccc3cnccc23)CC1 [Compound (58), 1-(5-isoquinolinesulfonyl)-4-benzoylpiperazine]	40
O=S(=O)(c1cccc2cnccc12)N1CCN(CCc2ccccc2)CC1 [Compound (57), 1-(5-isoquinolinesulfonyl)-4-phenethylpiperazine]	12
CCOC(CN1CCN(S(=O)(=O)c2cccc3cnccc23)CC1)c1ccccc1 (stereo not drawn) [Compound (63), 1-(5-isoquinolinesulfonyl)-4-(2-ethoxy-2-phenylethyl)piperazine]	13
O=S(=O)(c1cccc2cnccc12)N1CCOCC1 [Compound (34), 1-(5-isoquinolinesulfonyl)morpholine]	10
CC(N)CNS(=O)(=O)c1cccc2cnccc12 (stereo not drawn) [Compound (9), N-(2-aminopropyl)-5-isoquinolinesulfonamide]	15
O=S(=O)(c1cccc2cnccc12)N1CCN(CC=Cc2ccccc2)CC1 [Compound (59), 1-(5-isoquinolinesulfonyl)-4-cinnamylpiperazine]	6.8
NCCCCCCCCCCNS(=O)(=O)c1cccc2cnccc12 [Compound (5), N-(10-aminodecyl)-5-isoquinolinesulfonamide]	14
CCC1CN(S(=O)(=O)c2cccc3cnccc23)C(CC)CN1 (stereo not drawn) [Compound (48), 1-(5-isoquinolinesulfonyl)-2,5-diethylpiperazine]	1.8
CC(C)NCCNS(=O)(=O)c1cccc2cnccc12 [Compound (16), N-(2-isopropylaminoethyl)-5-isoquinolinesulfonamide]	10
CCC(CN)NS(=O)(=O)c1cccc2cnccc12 (stereo not drawn) [Compound (7), N-(1-aminomethylpropyl)-5-isoquinolinesulfonamide]	21
NCCCCCCNS(=O)(=O)c1cccc2cnccc12 [Compound (4), N-(6-aminohexyl)-5-isoquinolinesulfonamide]	10
CC1CN(S(=O)(=O)c2cccc3cnccc23)CC(C)N1 (stereo not drawn) [Compound (39), 1-(5-isoquinolinesulfonyl)-3,5-dimethylpiperazine]	9.5
CCCCC(CN)NS(=O)(=O)c1cccc2cnccc12 (stereo not drawn) [Compound (8), N-(1-aminomethylpentyl)-5-isoquinolinesulfonamide]	19
NCC(NS(=O)(=O)c1cccc2cnccc12)c1ccccc1 (stereo not drawn) [Compound (12), N-(2-amino-1-phenylethyl)-5-isoquinolinesulfonamide]	18
CCN(CC)S(=O)(=O)c1cccc2cnccc12 [Compound (30), N,N-diethyl-5-isoquinolinesulfonamide]	8.9
CN(CCCNS(=O)(=O)c1cccc2cnccc12)c1ccccc1 [Compound (23), N-[3-(N-methyl-N-phenylamino)propyl]-5-isoquinolinesulfonamide]	4
CN(CCCNS(=O)(=O)c1cccc2cnccc12)Cc1ccccc1 [Compound (24), N-[3-(N-methyl-N-benzylamino)propyl]-5-isoquinolinesulfonamide]	17
CC(C)CNS(=O)(=O)c1cccc2cnccc12 [Compound (28), N-isobutyl-5-isoquinolinesulfonamide]	19
O=C(C=Cc1ccccc1)N1CCN(S(=O)(=O)c2cccc3cnccc23)CC1 [Compound (60), 1-(5-isoquinolinesulfonyl)-4-cinnamoylpiperazine]	27
O=S(=O)(c1cccc2cnccc12)N1CCNC(Cc2ccccc2)C1 (stereo not drawn) [Compound (54), 1-(5-isoquinolinesulfonyl)-3-benzylpiperazine]	11
NCCCCNS(=O)(=O)c1cccc2cnccc12 [Compound (3), N-(4-aminobutyl)-5-isoquinolinesulfonamide]	11
CC(C)CN1CCN(S(=O)(=O)c2cccc3cnccc23)CC1 [Compound (47), 1-(5-isoquinolinesulfonyl)-4-isobutylpiperazine]	24
CN(C)S(=O)(=O)c1cccc2cnccc12 [Compound (29), N,N-dimethyl-5-isoquinolinesulfonamide]	13

Structure (SMILES)	EC50 [µM]
O=S(=O)(NCCCN1CCCCC1)c1cccc2cnccc12 [Compound (20), N-(3-piperidinopropyl)-5-isoquinolinesulfonamide]	42
O=S(=O)(c1cccc2cnccc12)N1CCCC1 [Compound (33), 1-(5-isoquinolinesulfonyl)pyrrolidine]	11
CCNS(=O)(=O)c1cccc2cnccc12 [Compound (26), N-ethyl-5-isoquinolinesulfonamide]	8.8
O=C(c1ccco1)N1CCN(S(=O)(=O)c2cccc3cnccc23)CC1 [Compound (61), 1-(5-isoquinolinesulfonyl)-4-furoylpiperazine]	24
CCN(CC)CCCNS(=O)(=O)c1cccc2cnccc12 [Compound (18), N-(3-diethylaminopropyl)-5-isoquinolinesulfonamide]	30
O=S(=O)(NCCCN1CCOCC1)c1cccc2cnccc12 [Compound (21), N-(3-morpholinopropyl)-5-isoquinolinesulfonamide]	50
O=S(=O)(c1cccc2cnccc12)N1CCNC(c2ccccc2)C1 (stereo not drawn) [Compound (53), 1-(5-isoquinolinesulfonyl)-3-phenylpiperazine]	7
CCCCCCN1CCN(S(=O)(=O)c2cccc3cnccc23)CC1 [Compound (51), 1-(5-isoquinolinesulfonyl)-4-hexylpiperazine]	19
CN(CCNS(=O)(=O)c1cccc2cnccc12)Cc1ccccc1 [Compound (65), N-[2-(N-methyl-N-benzylamino)ethyl]-5-isoquinolinesulfonamide]	13
CC(CN)NS(=O)(=O)c1cccc2cnccc12 (stereo not drawn) [Compound (6), N-(2-amino-1-methylethyl)-5-isoquinolinesulfonamide]	10
CNS(=O)(=O)c1cccc2cnccc12 [Compound (25), N-methyl-5-isoquinolinesulfonamide]	13
O=S(=O)(c1cccc2cnccc12)N1CCN(Cc2ccccc2)CC1 [Compound (56), 1-(5-isoquinolinesulfonyl)-4-benzylpiperazine]	23
NCCCNS(=O)(=O)c1cccc2cnccc12 [Compound (2), N-(3-aminopropyl)-5-isoquinolinesulfonamide]	7
CCCCN(CCCC)S(=O)(=O)c1cccc2cnccc12 [Compound (31), N,N-di-n-butyl-5-isoquinolinesulfonamide]	28
CC(C)CC1CN(S(=O)(=O)c2cccc3cnccc23)CCN1 (stereo not drawn) [Compound (46), 1-(5-isoquinolinesulfonyl)-3-isobutylpiperazine]	6.5
CCC1CN(S(=O)(=O)c2cccc3cnccc23)CCN1 (stereo not drawn) [Compound (43), 1-(5-isoquinolinesulfonyl)-3-ethylpiperazine]	6.1
CCN1CCN(S(=O)(=O)c2cccc3cnccc23)CC1 [Compound (42), 1-(5-isoquinolinesulfonyl)-4-ethylpiperazine]	18
CCCCNS(=O)(=O)c1cccc2cnccc12 [Compound (27), N-n-Butyl-5-isoquinolinesulfonamide]	21
O=S(=O)(c1cccc2cnccc12)N1CCCCC1 [Compound (32), 1-(5-isoquinolinesulfonyl)piperidine]	16
CCCN1CCN(S(=O)(=O)c2cccc3cnccc23)CC1 [Compound (44), 1-(5-isoquinolinesulfonyl)-4-n-propylpiperazine]	8.6
CC(C)N(CCNS(=O)(=O)c1cccc2cnccc12)Cc1ccccc1 [Compound (67), N-[2-(N-isopropyl-N-benzylamino)ethyl]-5-isoquinolinesulfonamide]	18
CC1NCCN(S(=O)(=O)c2cccc3cnccc23)C1C (stereo not drawn) [Compound (41), 1-(5-isoquinolinesulfonyl)-2,3-dimethylpiperazine]	1.5
NC(CNS(=O)(=O)c1cccc2cnccc12)c1ccccc1 (stereo not drawn) [Compound (13), N-(2-amino-2-phenylethyl)-5-isoquinolinesulfonamide]	25
CC1CN(S(=O)(=O)c2cccc3cnccc23)CCN1 (stereo not drawn) [Compound (37), 1-(5-isoquinolinesulfonyl)-3-methylpiperazine]	4
O=S(=O)(c1cccc2cnccc12)N1CCN(c2ccccc2)CC1 [Compound (55), 1-(5-isoquinolinesulfonyl)-4-phenylpiperazine]	9
CC1CNC(Cc2ccccc2)CN1S(=O)(=O)c1cccc2cnccc12 (stereo not drawn) [Compound (50), 1-(5-isoquinolinesulfonyl)-2-methyl-5-benzylpiperazine]	16

Reference: patent US4525589A, “Isoquinolinesulfonyl derivatives” (Asahi Kasei Kogyo Kabushiki Kaisha, priority 1981, dated 1985)
